For this series, the system named is U-87 MG cells. In words: MTT assay of cytotoxicity of vector-infected cells treated with GCV. It counts as cell-based, human. The note with it: normal (non-infected) cells. The method, then:
In order to measure a degree of cytotoxicity of the cells infected with the spRCR-TK vector when treated with GCV in vitro, MTT assay was carried out. First, a vector carrying a therapeutic gene, TK, instead of a GFP gene of the Env vector was prepared. Then, the 293T cells were transfected with the prepared vector and a Gag-pol vector, so as to manufacture the spRCR-TK vector. Then, the U-87 MG cells were infected with the virus of the spRCR-TK vector, and maintained for 14 days. Afterwards, the infected cells and non-infected cells were inoculated into a 96-well plate. […] The GCV treatment period was divided as the 1st, 2nd, 3rd, and 4th day, to perform MTT assay.
In general terms: Tetrazolium assays rely on reduction of a dye to a coloured formazan, in cell work by metabolically active cells.

Structures are written as SMILES.

For the molecule `Nc1nc(O)c2ncn(COC(CO)CO)c2n1` [GCV, Ganciclovir], the “GCV concentration from which normal cells show cytotoxicity” value was no less than 70 µg/mL.
